How the values were obtained:
Type in all cases: in vivo
[1] = test system: hair growth at depilated back portions of mice (C57BL/6); experiment: Hair growth after subcutaneous injection in depilated mice; settings: 3% solution, subcutaneous injection 50 μL every 3-4 days, seven times
Method: According to one embodiment, sodium valproate (VPA) is administered to subjects via subcutaneous injection and then tested for its effect for promoting hair growth. Seven week aged female mice (C57BL/6) are subjected to depilation at their back portions. Next, 3% sodium valproate solution is administered via subcutaneous injection to the left side of each depilated back portion in a unit dose of 50 μL at an interval of 3-4 days seven times in total. Then, the degree of hair growth is observed 1, 16 and 30 days after starting the test. In the test of FIG. 1, sodium valproate is injected subcutaneously to the left portion (marked by a circle) of the back of each mouse.

[2] = test system: hair growth at depilated back portions of mice (C57BL/6); experiment: Hair growth and hair weight after oral administration in depilated mice; settings: for hair growth as compared to the control (FIG. 2): 0.2 g/kg everyday for 5 weeks
Method: According to one embodiment, sodium valproate is administered orally to subjects and then tested for its effect for promoting hair growth. Seven week aged female mice (C57BL/6) are subjected to depilation at their back portions. Next, valproic acid is administered orally to mice of each test group everyday for 5 weeks. The control (mixed solution of distilled water, 1% methyl cellulose and 0.5% Tween 80™) and sodium valproate each are administered in a unit dose of 0.2 g/kg. After the administration, hair growth is observed at an interval of one week. After 5 weeks, hair weight after the depilation is measured.

[3] = test system: hair growth at depilated back portions of mice (C57BL/6); experiment: Hair growth and hair weight after skin application in depilated mice
Method: According to one embodiment, sodium valproate is administered to subjects via external application to the skin and then tested for its effect for promoting hair growth. Seven week aged female mice (C57BL/6) are subjected to depilation at their back portions. Next, 7.2% sodium valproate is applied to the depilated back portions of mice of each test group twice per day. As a control, a mixed solution of propylene glycol/ethanol/water (5:3:2) is used. After the skin application, hair growth is observed at an interval of one week. After 6 weeks, hair weight after the depilation is measured.

SMILES	degree of hair growth as compared to the control (FIG. 1) ([1]; after 16 days, control = right side of back)	formation of new hair follicles (FIG. 1) ([1]; after 30 days)	hair growth as compared to the control (FIG. 2) [2]	hair weight (FIG. 3) ([2]; 0.2 g/kg everyday, after 5 weeks, control about 85 mg) [mg]	hair growth as compared to the control (FIG. 4) ([3]; 7.2% skin application twice per day)	hair weight (FIG. 5) ([3]; 7.2% skin application twice per day, after 6 weeks, control about 35 mg) [mg]	hair growth, summary statement ([3]; transdermal administration (subcutaneous injection or skin application))
CCCC(CCC)C(=O)[O-].[Na+] [sodium valproate]	hair growth is promoted	new hair follicles are formed	delays hair growth	65	promotes hair growth	≥ 80	
CCCC(CCC)C(=O)O [valproic acid, 2-propylpentanoic acid]			inhibits hair growth				promotes hair growth
